Data from ChEMBL document CHEMBL4354822, “Ligand-Based Design of Nondimethylphenyl-Diarylpyrimidines with Improved Metabolic Stability, Safety, and Oral Pharmacokinetic Profiles” (J Med Chem, 2019).
pEC50, pIC50: −log10 of the molar value.

How the values were obtained:
[1] = test system: Human immunodeficiency virus 1; test: Antiviral activity against HIV1 harboring reverse transcriptase K103N mutant infected in human MT4 cells assessed as reduction in virus-induced cytopathic effect incubated for 5 days by MTT assay; assay type: functional, organism-based; conditions: Human immunodeficiency virus 1, MT4, 120 h
[2] = test system: Human immunodeficiency virus 1; test: Antiviral activity against HIV1 harboring reverse transcriptase Y181C mutant infected in human MT4 cells assessed as reduction in virus-induced cytopathic effect incubated for 5 days by MTT assay; assay type: functional, organism-based; conditions: Human immunodeficiency virus 1, MT4, 120 h
[3] = test system: Human immunodeficiency virus 1; test: Antiviral activity against HIV1 harboring reverse transcriptase E138K mutant infected in human MT4 cells assessed as reduction in virus-induced cytopathic effect incubated for 5 days by MTT assay; assay type: functional, organism-based; conditions: Human immunodeficiency virus 1, MT4, 120 h
[4] = target: Human immunodeficiency virus type 1 reverse transcriptase (Human immunodeficiency virus 1) (UniProt Q72547); test: Ratio of IC50 for nevirapine to IC50 for test compound for recombinant wild type HIV1 reverse transcriptase p66/p51
[5] = test system: Human immunodeficiency virus 1; test: Antiviral activity against HIV1 3B infected in human MT4 cells incubated assessed as reduction in virus-induced cytopathic effect for 5 days by MTT assay; assay type: functional, organism-based; conditions: Human immunodeficiency virus 1, 3B, MT4, 120 h
[6] = Selectivity index, ratio of CC50 for human MT4 cells to EC50 for antiviral activity against HIV1 3B infected in human MT4 cells incubated for 5 days by MTT assay; assay type: toxicity, cell-based; conditions: MT4 cells (uninfected for CC50; HIV-1 3B infected for EC50)
[7] = test system: Human immunodeficiency virus 1; test: Antiviral activity against HIV1 harboring reverse transcriptase Y188L mutant infected in human MT4 cells assessed as reduction in virus-induced cytopathic effect incubated for 5 days by MTT assay; assay type: functional, organism-based; conditions: Human immunodeficiency virus 1, MT4, 120 h
[8] = test system: Human immunodeficiency virus 1; test: Antiviral activity against HIV1 harboring reverse transcriptase L100I mutant infected in human MT4 cells assessed as reduction in virus-induced cytopathic effect incubated for 5 days by MTT assay; assay type: functional, organism-based; conditions: Human immunodeficiency virus 1, MT4, 120 h
[9] = target: Human immunodeficiency virus type 1 reverse transcriptase (Human immunodeficiency virus 1, UniProt Q72547); test: Inhibition of recombinant wild type HIV1 reverse transcriptase p66/p51 incubated for 40 mins by picogreen dye-based spectrofluorometric analysis
[10] = test system: MT4; test: Cytotoxicity against human MT4 cells assessed as reduction in cell viability incubated for 5 days by MTT assay; assay type: functional; conditions: MT4, 120 h
[11] = Aqueous solubility of compound at 2 mg measured for 24 hrs by HPLC analysis; assay type: physicochemical; conditions: aqueous medium
[12] = Metabolic stability in human liver microsomes at 1 uM measured up to 45 mins in presence of NADPH by LC/MS/MS analysis; assay type: ADME, Microsome
[13] = Metabolic stability in rat liver microsomes at 1 uM measured up to 45 mins in presence of NADPH by LC/MS/MS analysis; assay type: ADME, Microsome; conditions: liver microsomes
[14] = Intrinsic clearance in human liver microsomes assessed per mg protein at 1 uM measured up to 45 mins in presence of NADPH by LC/MS/MS analysis; assay type: ADME, Microsome; conditions: read-out: CLH
[15] = Intrinsic clearance in rat liver microsomes assessed per mg protein at 1 uM measured up to 45 mins in presence of NADPH by LC/MS/MS analysis; assay type: ADME, Microsome; conditions: liver microsomes, read-out: CLH

Structure (SMILES) | pEC50 [1] | pEC50 [2] | pEC50 [3] | pEC50 [5] | selectivity ratio at 120 h [6] | pEC50 [8] | CC50 [10] [nM] | further results
N#Cc1ccc(Nc2nccc(Oc3ccc(-c4ccc(C#N)cc4)cc3F)n2)cc1 | 7.91 | 7.31 | 8.19 | 8.74 | > 172000 | 7.19 | > 307000 | Ratio IC50 [4]: 21 to 109; pEC50 [7]: < 3.51; pIC50 [9]: > 8.43
N#Cc1ccc(Nc2nccc(Oc3ccc(-c4ccc(C#N)c(Cl)c4)cc3Cl)n2)cc1 | – | – | – | 7.20 | 232 | – | 14900 | –
COc1cc(-c2ccc(C#N)cc2)ccc1Nc1ccnc(Nc2ccc(C#N)cc2)n1 | 7.74 | 6.80 | 8.13 | 8.54 | > 106000 | 6.91 | > 299000 | Ratio IC50 [4]: 21 to 109; pEC50 [7]: < 3.52; pIC50 [9]: 8.22
Cc1cc(-c2ccc(C#N)cc2)ccc1Oc1ccnc(Nc2ccc(C#N)cc2)n1 | 8.06 | 7.74 | 8.21 | 8.60 | > 122000 | 7.33 | > 310000 | Ratio IC50 [4]: 21 to 109; pEC50 [7]: 4.84; pIC50 [9]: 8.26
Cc1cc(Oc2ccnc(Nc3ccc(C#N)cc3)n2)ccc1-c1ccc(C#N)cc1 | – | – | – | 6.14 | 41 | – | 29400 | –
Cc1cc(-c2ccc(C#N)cc2)c(Cl)cc1Oc1ccnc(Nc2ccc(C#N)cc2)n1 | 8.43 | 7.49 | 7.92 | 8.34 | > 63300 | 8.07 | > 286000 | Ratio IC50 [4]: 21 to 109; pEC50 [7]: < 3.54; pIC50 [9]: 7.73
Cc1cc(C#N)cc(C)c1Oc1nc(Nc2ccc(C#N)cc2)nc(N)c1Br [ETRAVIRINE] | – | 7.92 | 8.19 | 8.20 | – | 8.15 | > 4610 | solubility at 24 h [11]: < 1 µg/mL
Cc1cc(-c2ccc(Oc3ccnc(Nc4ccc(C#N)cc4)n3)c(F)c2)ccc1C#N | – | – | – | 7.30 | > 6020 | – | > 297000 | –
N#Cc1ccc(Nc2nccc(Nc3c(F)cc(-c4ccc(C#N)cc4)cc3F)n2)cc1.O=S(=O)(O)O | – | – | – | – | – | – | – | solubility at 24 h [11]: 0.36 µg/mL
N#Cc1ccc(Nc2nccc(Oc3ccc(-c4ccc(C#N)cc4F)cc3F)n2)cc1 | – | – | – | 8.51 | > 98000 | – | > 294000 | –
CC(=O)O.N#Cc1ccc(Nc2nccc(Nc3c(F)cc(-c4ccc(C#N)cc4)cc3F)n2)cc1 | – | – | – | – | – | – | – | solubility at 24 h [11]: 0.34 µg/mL
N#Cc1ccc(Nc2nccc(Oc3ccc(-c4ccc(C#N)cc4)c(Cl)c3)n2)cc1 | – | – | – | 8.00 | 3130 | – | 31100 | –
O=C1Nc2ccc(Cl)cc2[C@@](C#CC2CC2)(C(F)(F)F)O1 [EFAVIRENZ] | 6.99 | 8.14 | 8.20 | 8.13 | – | 7.36 | > 6340 | pEC50 [7]: 6.54
N#Cc1ccc(Nc2nccc(Nc3c(F)cc(-c4ccc(C#N)cc4)cc3F)n2)cc1.O=C(O)C(F)(F)F | – | – | – | – | – | – | – | solubility at 24 h [11]: 0.35 µg/mL
N#Cc1ccc(Nc2nccc(Oc3ccc(-c4ccc(C#N)c(F)c4)cc3F)n2)cc1 | – | – | – | 6.92 | > 2430 | – | > 294000 | –
COc1cc(Oc2ccnc(Nc3ccc(C#N)cc3)n2)ccc1-c1ccc(C#N)cc1 | – | – | – | 8.51 | > 100000 | – | > 298000 | –
Cc1cc(-c2ccc(C#N)cc2)cc(C)c1Nc1ccnc(Nc2ccc(C#N)cc2)n1 | – | – | – | – | – | – | – | k el at 0.75 h, 1 µM [12]: 0.00079 s⁻¹; half-life at 1 µM [13]: 15.4 min; k el at 0.75 h, 1 µM [13]: 0.00075 s⁻¹; solubility at 24 h [11]: < 1 µg/mL; microsomal CLint at 1 µM [14]: 47.4 µL/min/mg; microsomal CLint at 1 µM [15]: 45 µL/min/mg
Cc1cc(-c2ccc(C#N)c(F)c2)ccc1Oc1ccnc(Nc2ccc(C#N)cc2)n1 | – | – | – | 7.77 | > 17400 | – | > 297000 | –
N#Cc1ccc(Nc2nccc(Oc3ccc(-c4ccc(C#N)cc4Cl)cc3Cl)n2)cc1 | – | – | – | 5.30 | > 55 | – | > 273000 | –
CS(=O)(=O)O.N#Cc1ccc(Nc2nccc(Nc3c(F)cc(-c4ccc(C#N)cc4)cc3F)n2)cc1 | – | – | – | – | – | – | – | solubility at 24 h [11]: 0.88 µg/mL

Structure (SMILES) | pEC50 [1] | pEC50 [2] | pEC50 [3] | pEC50 [5] | selectivity ratio at 120 h [6] | pEC50 [8] | CC50 [10] [nM] | further results
N#Cc1ccc(Nc2nccc(Nc3ccc(-c4ccc(C#N)cc4)c(F)c3)n2)cc1 | – | – | – | 7.84 | > 18600 | – | > 271000 | –
N#Cc1ccc(Nc2nccc(Oc3ccc(-c4ccc(C#N)cc4)c(F)c3)n2)cc1 | – | – | – | 8.49 | > 98000 | – | > 307000 | –
N#Cc1ccc(Nc2nccc(Nc3ccc(-c4ccc(C#N)cc4)cc3F)n2)cc1 | – | – | – | 7.95 | > 27300 | – | 308000 | –
Cc1cc(-c2ccc(C#N)cc2F)ccc1Oc1ccnc(Nc2ccc(C#N)cc2)n1 | 8.33 | 7.84 | 8.31 | 7.97 | > 27500 | 7.88 | > 297000 | Ratio IC50 [4]: 21 to 109; pEC50 [7]: < 3.53; pIC50 [9]: 8.06
N#Cc1ccc(Nc2nccc(Nc3c(F)cc(-c4ccc(C#N)cc4)cc3F)n2)cc1 [listing 1 of 2 here] | 8.59 | 8.21 | 8.72 | 8.89 | > 238000 | 7.97 | > 295000 | solubility at 24 h [11]: < 1 µg/mL; pEC50 [7]: 6.89; pIC50 [9]: 8.33
Cc1cc(C#N)ccc1-c1ccc(Oc2ccnc(Nc3ccc(C#N)cc3)n2)c(F)c1 | – | – | – | 7.18 | > 4460 | – | > 297000 | –
Cc1cc(Nc2ccnc(Nc3ccc(C#N)cc3)n2)ccc1-c1ccc(C#N)cc1 | – | – | – | 7.86 | 894 | – | 12400 | –
Cc1cc(-c2ccc(C#N)cc2)ccc1Nc1ccnc(Nc2ccc(C#N)cc2)n1 | 8.52 | 8.05 | 8.52 | 8.68 | 4480 | 7.78 | 9200 | Ratio IC50 [4]: 21 to 109; pEC50 [7]: 6.62; pIC50 [9]: > 8.21
N#Cc1ccc(Nc2nccc(Nc3c(F)cc(-c4ccc(C#N)cc4)cc3F)n2)cc1.O=CO | – | – | – | – | – | – | – | solubility at 24 h [11]: 0.35 µg/mL
N#Cc1ccc(Nc2nccc(Oc3c(F)cc(-c4ccc(C#N)cc4)cc3F)n2)cc1 | 8.46 | 7.63 | 8.28 | 8.48 | > 89300 | 7.76 | > 294000 | Ratio IC50 [4]: 21 to 109; pEC50 [7]: < 3.53; pIC50 [9]: 7.88
N#Cc1ccc(Nc2nccc(Oc3ccc(-c4ccc(C#N)cc4)c(C(F)(F)F)c3)n2)cc1 | – | – | – | 7.74 | > 15000 | – | > 273000 | –
N#Cc1ccc(Nc2nccc(Oc3ccc(-c4ccc(C#N)cc4)c(F)c3F)n2)cc1 | – | – | – | 7.82 | > 19200 | – | > 294000 | –
N#Cc1ccc(Nc2nccc(Nc3c(F)cc(-c4ccc(C#N)cc4)cc3F)n2)cc1.O=S(=O)(O)c1ccccc1 | – | – | – | – | – | – | – | solubility at 24 h [11]: 0.39 µg/mL
COc1cc(Nc2ccnc(Nc3ccc(C#N)cc3)n2)ccc1-c1ccc(C#N)cc1 | – | – | – | 7.76 | 304 | – | 5260 | –
Cc1ccnc2c1NC(=O)c1cccnc1N2C1CC1 [NEVIRAPINE] | < 5.00 | < 4.80 | – | – | – | 5.68 | > 15000 | –
N#Cc1ccc(Nc2nccc(Nc3c(F)cc(-c4ccc(C#N)cc4)cc3F)n2)cc1 [listing 2 of 2 here] | – | – | – | – | – | – | – | Ratio IC50 [4]: 21 to 109
N#Cc1ccc(Nc2nccc(Oc3ccc(-c4ccc(C#N)cc4)cc3C(F)(F)F)n2)cc1 | – | – | – | 8.17 | > 40600 | – | > 273000 | –
N#Cc1ccc(Nc2nccc(Oc3ccc(-c4ccc(C#N)cc4)cc3Cl)n2)cc1 | > 8.42 | 7.86 | > 8.42 | 8.77 | > 179000 | 7.95 | > 295000 | Ratio IC50 [4]: 21 to 109; pEC50 [7]: 6.48; pIC50 [9]: 8.08
COc1cc(-c2ccc(C#N)cc2)ccc1Oc1ccnc(Nc2ccc(C#N)cc2)n1 | 8.35 | 7.78 | 8.70 | 8.80 | > 192000 | 7.92 | > 298000 | Ratio IC50 [4]: 21 to 109; pEC50 [7]: < 3.53; pIC50 [9]: 8.03
